≈ marks a conversion by molar mass, not a printed value.
Key:
[1] = cited from earlier work
[2] = Stability after storing different crystalline forms of Tigecycline at 80° C. for 7 days (4-Epi-Tigecycline and total impurities); type: physicochemical; conditions: for Stability in words (total impurities and 4-Epi-Tigecycline content): 7 days at 80° C.; for 4-Epi-Tigecycline 7 days at 80° C. / Total impurities 7 days at 80° C.: after storing 7 days at 80° C., in % (unit assumed); for 4-Epi-Tigecycline ambient conditions / Total impurities ambient conditions: before storage, depends on purity of the starting material
From the text: A suitable crystalline form of Tigecycline for formulating an anti-infective medicament first of all is required to be thermodynamic stable, in order to avoid formation of degradation products.

[3] = 30 min
Protocol: The water solubility determination of the different crystalline forms of Tigecycline was performed on a Perkin Elmer® Lambda 35 UV/VIS spectrometer. The software used was Perkin Elmer® UV WlnLab-5.1.
200 mg of Tigecycline were stirred with 1 ml distilled water at room temperature for 30 minutes. The suspension was filtered through a 0.45 μm filter and 100 μl of the solution were transferred into a 1 L volumetric flask. After filling up to the check mark with distilled water the solution was measured at 347 nm.

[4] = Water content and hygroscopicity: open storage for 24 hours at 80% relative humidity; type: physicochemical; conditions: for water content 1 day at 80% rH: open storage 1 day at 80% rH; for water uptake 1 day at 80% rH / Hygroscopicity in words: open storage 24 hours at 80% relative humidity
From the text: Furthermore suitable crystalline forms of Tigecycline should be low hygroscopic, as water uptake may cause the formation of undesired byproducts like e.g. 4-Epi-Tigecycline.

CN(C)c1cc(NC(=O)CNC(C)(C)C)c(O)c2c1C[C@H]1C[C@H]3[C@H](N(C)C)C(O)=C(C(N)=O)C(=O)[C@@]3(O)C(O)=C1C2=O [Tigecycline, (4S,4aS,5aR,12aS)-4,7-Bis(dimethylamino)-9-[[2-[(1,1-dimethylethyl)amino]acetyl]amino]-1,4,4a,5,5a,6,11,12a-octahydro-3,10,12,12a-tetrahydroxy-1,11-dioxo-2-naphthacene carboxamide]
oral bioavailability [1]: very limited

CN(C)c1cc(NC(=O)CNC(C)(C)C)c(O)c2c1C[C@H]1C[C@H]3[C@H](N(C)C)C(O)=C(C(N)=O)C(=O)[C@@]3(O)C(O)=C1C2=O [Form VIII, Tigecycline]
Stability in words (total impurities and 4-Epi-Tigecycline content) ([2]; listed as VIII): adequate stability data | Stability in words (total impurities and 4-Epi-Tigecycline content) ([2]; listed as form VIII): adequate stability data | 4-Epi-Tigecycline 7 days at 80° C. ([2]; listed as VIII): 0.70 | Total impurities 7 days at 80° C. ([2]; listed as VIII): 2.13 | 4-Epi-Tigecycline ambient conditions ([2]; listed as VIII): 0.15% | Total impurities ambient conditions ([2]; listed as VIII): 0.43% | Solubility, Concentration [3]: 141 mg/mL (≈ 241 mM) | water content ambient conditions ([4]; listed as VIII): 0.10% | water content 1 day at 80% rH ([4]; listed as VIII): 0.21% | water uptake 1 day at 80% rH ([4]; listed as VIII): 0.11% | Hygroscopicity in words ([4]; listed as form VIII): no water uptake at all | water uptake 1 day at 80% rH ([4]; listed as form VIII): 0.11%

CN(C)c1cc(NC(=O)CNC(C)(C)C)c(O)c2c1C[C@H]1C[C@H]3[C@H](N(C)C)C(O)=C(C(N)=O)C(=O)[C@@]3(O)C(O)=C1C2=O [Form I, Tigecycline]
Stability in words (total impurities and 4-Epi-Tigecycline content) [2]: tremendous increase | 4-Epi-Tigecycline 7 days at 80° C. ([2]; listed as I): 2.15 | Total impurities 7 days at 80° C. ([2]; listed as I): 11.20 | 4-Epi-Tigecycline ambient conditions ([2]; listed as I): 0.36% | Total impurities ambient conditions ([2]; listed as I): 0.75% | Solubility, Concentration [3]: 185 mg/mL (≈ 316 mM) | water content ambient conditions ([4]; listed as I): 2.01% | water content 1 day at 80% rH ([4]; listed as I): 5.01% | water uptake 1 day at 80% rH ([4]; listed as I): 3.00%

CN(C)c1cc(NC(=O)CNC(C)(C)C)c(O)c2c1C[C@H]1C[C@H]3[C@H](N(C)C)C(O)=C(C(N)=O)C(=O)[C@@]3(O)C(O)=C1C2=O [Form VI, Tigecycline]
Stability in words (total impurities and 4-Epi-Tigecycline content) ([2]; listed as VI): adequate stability data | 4-Epi-Tigecycline 7 days at 80° C. ([2]; listed as VI): 0.38 | Total impurities 7 days at 80° C. ([2]; listed as VI): 0.91 | 4-Epi-Tigecycline ambient conditions ([2]; listed as VI): 0.17% | Total impurities ambient conditions ([2]; listed as VI): 0.24% | Solubility, Concentration [3]: 76 mg/mL (≈ 130 mM) | water content ambient conditions ([4]; listed as VI): 0.18% | water content 1 day at 80% rH ([4]; listed as VI): 0.25% | Hygroscopicity in words [4]: low hygroscopicity | water uptake 1 day at 80% rH ([4]; listed as VI): 0.07%

CN(C)c1cc(NC(=O)CNC(C)(C)C)c(O)c2c1C[C@H]1C[C@H]3[C@H](N(C)C)C(O)=C(C(N)=O)C(=O)[C@@]3(O)C(O)=C1C2=O [Form II, Tigecycline]
Stability in words (total impurities and 4-Epi-Tigecycline content) ([2]; listed as form II): tremendous increase | 4-Epi-Tigecycline 7 days at 80° C. ([2]; listed as II): 10.83 | Total impurities 7 days at 80° C. ([2]; listed as II): 18.44 | 4-Epi-Tigecycline ambient conditions ([2]; listed as II): 1.04% | Total impurities ambient conditions ([2]; listed as II): 1.6% | Solubility, Concentration [3]: 177 mg/mL (≈ 302 mM) | water content ambient conditions ([4]; listed as II): 2.93% | water content 1 day at 80% rH ([4]; listed as II): 10.04% | water uptake 1 day at 80% rH ([4]; listed as II): 7.11%

CN(C)c1cc(NC(=O)CNC(C)(C)C)c(O)c2c1C[C@H]1C[C@H]3[C@H](N(C)C)C(O)=C(C(N)=O)C(=O)[C@@]3(O)C(O)=C1C2=O [Form III, Tigecycline]
4-Epi-Tigecycline 7 days at 80° C. ([2]; listed as III): 2.18 | Total impurities 7 days at 80° C. ([2]; listed as III): 4.46 | 4-Epi-Tigecycline ambient conditions ([2]; listed as III): 0.16% | Total impurities ambient conditions ([2]; listed as III): 0.16% | Solubility, Concentration [3]: 174 mg/mL (≈ 297 mM) | water content ambient conditions ([4]; listed as III): 0.69% | water content 1 day at 80% rH ([4]; listed as III): 8.01% | water uptake 1 day at 80% rH [4]: 7.32% | water uptake 1 day at 80% rH ([4]; listed as III): 7.32%

CN(C)c1cc(NC(=O)CNC(C)(C)C)c(O)c2c1C[C@H]1C[C@H]3[C@H](N(C)C)C(O)=C(C(N)=O)C(=O)[C@@]3(O)C(O)=C1C2=O [Form V, Tigecycline]
4-Epi-Tigecycline 7 days at 80° C. ([2]; listed as V): 0.18 | Total impurities 7 days at 80° C. ([2]; listed as V): 0.37 | 4-Epi-Tigecycline ambient conditions ([2]; listed as V): < 0.05% | Total impurities ambient conditions ([2]; listed as V): 0.22% | Solubility, Concentration [3]: 134 mg/mL (≈ 229 mM) | water content ambient conditions ([4]; listed as V): 0.19% | water content 1 day at 80% rH ([4]; listed as V): 1.88% | water uptake 1 day at 80% rH ([4]; listed as V): 1.69%

CN(C)c1cc(NC(=O)CNC(C)(C)C)c(O)c2c1C[C@H]1C[C@H]3[C@H](N(C)C)C(O)=C(C(N)=O)C(=O)[C@@]3(O)C(O)=C1C2=O [Form IV, Tigecycline]
4-Epi-Tigecycline 7 days at 80° C. ([2]; listed as IV): 0.38 | Total impurities 7 days at 80° C. ([2]; listed as IV): 0.87 | 4-Epi-Tigecycline ambient conditions ([2]; listed as IV): 0.23% | Total impurities ambient conditions ([2]; listed as IV): 0.4% | Solubility, Concentration [3]: 183 mg/mL (≈ 312 mM) | water content ambient conditions ([4]; listed as IV): 2.90% | water content 1 day at 80% rH ([4]; listed as IV): 3.33% | water uptake 1 day at 80% rH ([4]; listed as IV): 0.43%
